The values that follow come from US8114895B2, “Use of bipyridine compound ‘Caerulomycin A’ derivatives and analogs thereof as immunosuppressive agents” (Council of Science and Industrial Research, priority 2005, dated 2012).

In one assay the test system is antigen specific T cells. Briefly: In vivo proliferation of antigen specific T cells (OVA-primed mice injected with drug, splenocytes cultured ex vivo). Details: species or system BALB/c mice. The settings on record: for proliferation of cells from antigen-primed animals injected with drug versus animals not administered drug: 25-100 μg/mice/day i.p. for 7 days. On the procedure:
FIG. 1: Different groups, each comprising five animals were immunized with OVA, followed by CaeA administration daily for 7 days before mice were sacrificed. Splenocytes (2×10^5 cells/well) were isolated and cultured in vitro with 100 μg/ml OVA and varied doses of CaeA. After 72 h, [^3H]-thymidine was added, and its incorporation was measured 16 h later.
FIG. 2: In another set of experiment, three different groups were immunized with OVA followed by administration of CaeA (25 μg/mice) in one of the group and Alcohol (vehicle control) in another group, daily for 7 days before mice were sacrificed. Splenocytes (2×10^5 cells/well) were isolated and cultured in vitro alone or with OVA 100 and 200 μg/ml (1.2). Each point represents the mean±SEM of triplicate determinations from one of the three representative experiments.
OVA (2 mg/ml) was dissolved in PBS (0.01 M, pH 7.2) and emulsified in Freund's complete adjuvant (FCA). Emulsion (100 μl) was then injected intraperitoneally (i.p.) in 7 groups, comprising 5 BALB/c mice in each set. Four groups of animals were injected intraperitoneally daily with Caerulomycin A (25, 50, 75, 100 μg/100 μl/mice). The control groups were immunized intraperitoneally with 100 μl each of PBS and ethanol-PBS. After seven days, mice were sacrificed and splenocytes were isolated and pooled for in vitro proliferation.
Ovalbumin (3 mg/ml) was dissolved in PBS (pH 7.2) and emulsified in Freund's complete adjuvant (FCA). Emulsion (100 μl) was then injected intraperitoneally (i.p.) in different groups, comprising 5 BALB/c mice in each set. Four groups of animals were injected intraperitoneally daily with caerulomycin A (25, 50, 75, 100 μg/100 μl/mice). The control groups were immunized intraperitoneally with ethanol-PBS.
After seven days, mice were sacrificed and splenocytes were pooled and used for proliferation assays. Splenocytes (2×10^5 cells/well) were cultured with OVA (100 μg/ml) in 200 μl RPMI/FCS-10% medium and with various concentrations of caerulomycin A (0.1-0.0003 μg/ml). The control cultures consisting of splenocytes incubated with different concentrations of caerulomycin A (no OVA), OVA and medium were also kept. After 72 h, the cultures were pulsed with 1 μCi of [^3H]-thymidine and harvested 14 h later. Radioactivity incorporated was measured by liquid scintillation counting and data are expressed as mean counts per minute (cpm).
The mice were administered with different doses of caerulomycin A for 7 days (FIG. 1). The animals were sacrificed and splenocytes were cultured in vitro with antigen and different concentrations of caerulomycin A (0.00625-0.10 μg/ml).

Assay [1] concerns calcium dependent pathway. Briefly: Proliferation by the calcium dependent (PMA+Lonomycin) pathway. Type of assay: cell-based. The settings on record: 48 h. On the procedure:
Cells were seeded at 5×10^4 cells/well in flat-bottom 96-well plates. The various stimuli and Caerulomycin A were added at the initiation of the cultures. After 48 h, [^3H]-thymidine (1 μCi/well) was added, and its incorporation was measured 12 h later.

Another assay deals with OVA-specific T cells. Briefly: Cytokine secretion by OVA-primed splenocytes (ELISA). Type of assay: cell-based, BALB/c mice. The settings on record: OVA 200 μg/ml, supernatants after 48 h. How it is done:
OVA (2 mg/ml) was dissolved in PBS (0.01 M, pH 7.2) and emulsified in Freund's complete adjuvant (FCA). Emulsion (100 μl) was then injected intraperitoneally in a group consisting of 5 BALB/c mice. The control group was injected with PBS alone. After seven days, mice were sacrificed and splenocytes were pooled and used for proliferation and cytokine assays. Splenocytes (5×10^5 cells/well) were cultured with OVA (200 μg/ml) in 200 μl RPMI/FCS-10% medium and with various concentrations of Caerulomycin A (0.0003-0.1 μg/ml). The control cultures consisting of splenocytes incubated with different concentrations of Caerulomycin A (no OVA), OVA and medium were also kept. The culture supernatants were collected after 48 h and cytokines were measured by ELISA.
In general terms: An ELISA detects its analyte on a solid surface through an enzyme-linked reagent.

For the compound `COc1cc(/C=N/O)nc(-c2ccccn2)c1` [Caerulomycin A, (E)-4-methoxy-2,2′-bipyridine-6-carbaldehyde oxime], in the assay on antigen specific T cells (25 μg/mice/day for 7 days, FIG. 2), the “growth of cells from injected mice versus PBS-ethanol animals” value is listed as “significant level of retardation in the growth”. Also, the “proliferation of cells from antigen-primed animals injected with drug versus animals not administered drug” value is “substantial inhibition” in the assay with antigen specific T cells (FIG. 1) and “substantial inhibition in the proliferation” in the assay with antigen specific T cells (FIG. 1, listed as caerulomycin A). In the assay on antigen specific T cells (cells incubated with 0.10 μg/ml of caerulomycin A, FIG. 1), the “proliferation of cells from treated animals incubated in vitro with drug” value is “Nearly complete inhibition”. For the same compound, in the assay on antigen specific T cells (mouse, in vivo), the “optimum dosage required in vivo” value was 5.0 mg/kg/body wt. The “proliferation of calcium dependent pathway” value in assay [1] is reported as “significantly inhibited the proliferation”. For the same compound, in the assay with OVA-specific T cells (Caerulomycin A 0.05-0.1 μg/ml), the “secretion of IFN-γ” value was “significantly suppressed the secretion”. Further, in the assay with OVA-specific T cells, the “production of IL-10” value is “failed to induce any change”.
